# What was measured:
# Assay in all cases: Broth microdilution antifungal assay
# Assay type in all cases: cell-based
# Settings in all cases: Sabouraud dextrose broth, 30° C., 48 hours
# C. glabrata 2001 = test system: C. glabrata 2001
# Experimental: (§1) For example, studies were performed to evaluate the antifungal activity of the recombinant peptide from pING4702 purified according to Example 6 in a broth microdilution assay using four strains of C. albicans, C. glabrata and S. cerevisiae. A similar peptide, XMP.391, that was chemically synthesized, was included in the assay as a positive control. To perform the broth microdilution assay, the fungal cultures were grown overnight at 30° C. in YPD medium (1% yeast extract, 2% peptone, and 2% dextrose). A 400 fold dilution of each culture in YPD was then made, and grown at 30° C. for 8 hours. Three mL of each culture were collected by centrifugation and suspended in 0.9% NaCl to an A600 of about 0.3. These cultures were further diluted to 1×10^4 CFU/mL in Sabouraud dextrose broth (6 mL). Recombinant peptide was in 5 mM acetate, 150 mM NaCl, pH 5.0 at a concentration of about 2 mg/mL. Synthetic peptide was at about 1 mg/mL. Samples were serially diluted and added to microtiter plates containing the cultures. Plates were incubated at 30° C. for 48 hours before growth inhibition was measured.
# C. albicans 14053 = test system: C. albicans 14053
# Experimental: as §1
# C. albicans 10231 = test system: C. albicans 10231
# Experimental: as §1
# S. cerevisiae 9763 = test system: S. cerevisiae 9763
# Experimental: as §1
# C. albicans SLU1 = test system: C. albicans SLU1
# Experimental: as §1
# C. albicans 26555 = test system: C. albicans 26555
# Experimental: as §1
Substance,Concentration that gives 95% inhibition (C. glabrata 2001),Concentration that gives 95% inhibition (C. albicans 14053),Concentration that gives 95% inhibition (C. albicans 10231),Concentration that gives 95% inhibition (S. cerevisiae 9763),Concentration that gives 95% inhibition (C. albicans SLU1),Concentration that gives 95% inhibition (C. albicans 26555)
"Recombinant Peptide: BPI-derived peptide (SEQ ID NO: 3) acid-released from the Bone D-Asp-Pro-Pro-peptide fusion protein encoded by pING4702, purified according to Example 6 (KVGWLIQLFHKK; Human)",30 µM,16 µM,30 µM,7.5 µM,16 µM,30 µM
"XMP.391: Chemically synthesized 12 amino acid BPI-derived peptide (Lys Val Gly Trp Leu Ile Gln Leu Phe His Lys Lys), positive control (KVGWLIQLFHKK; printed: Lys Val Gly Trp Leu Ile Gln Leu Phe His Lys Lys)",30 µM,16 µM,16 µM,2.0 µM,13.5 µM,16 µM

# — patent US7749731B2, “Methods for recombinant peptide production” (XOMA Technology Ltd., priority 1999, dated 2010)
